Laboratory results from PubChem BioAssay AID720588 (Broad Institute, 2013).

tested on: HEK293T viability, CellTiter-Glo ATP luminescence, 72 h; assay: HEK293T cell cytotoxicity, dose response, cytotoxicity control, CellTiter-Glo luminescence, cherry-pick, set 3 (AID 720588);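 also: potency for luminescence loss meaning cytotoxic compounds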

| Structure (SMILES) | AC35 [µM] |
| --- | --- |
| Cc1cc(C(=O)Nc2ccc3c(c2)C(=O)N(C)[C@@H]2CC[C@@H](CC(=O)NCc4ccc(-c5ccccc5)cc4)O[C@H]2CO3)no1 | 24.5 |
| C[C@@H]1CN([C@H](C)CO)C(=O)c2cc(C#CCN(C)C)cnc2O[C@H]1CN(C)Cc1ccc(-c2ccccc2)cc1 | 12.4 |
| O=C1NC(=O)N(c2ccccc2)C(=O)/C1=C\C=C\c1ccccc1 | 19.1 |
| COC1C(O)C(C)OC(OC2CCC3(C)C(CCC4C3C(O)CC3(C)C(C5=CC(=O)OC5)CCC43O)C2)C1O (centres undefined) | 0.244 |
| c1ccc(Nc2nnc(-c3ccc4c(c3)OCO4)o2)cc1 | 3.33 |
| C[C@H](CO)N1C[C@H](C)[C@@H](CN(C)Cc2ccc(C(F)(F)F)cc2)OCCCC[C@H](C)Oc2ccc(NS(=O)(=O)c3ccc(F)cc3)cc2C1=O | 15.1 |
| Cc1cc(C)cc(N2C(=O)NC(=O)/C(=C\C=C\c3ccco3)C2=O)c1 | 10.6 |
| N/C(=C\C(=O)c1cc(Cl)ccc1O)C(Cl)(Cl)Cl | 14.7 |
| CCc1ccc(N2C=C(C(=O)OC)C(c3ccc(OC)cc3)C(C#N)=C2N)cc1 (centres undefined) | 10.6 |
| COC1C(O)C(C)OC(OC2C(Oc3cccc4c(O)c5c(=O)oc6ccc(C)c7c(=O)oc(c34)c5c67)OC(C)C(O)C2O)C1O (centres undefined) | 15.1 |
| COc1ccc(NC(=O)N2CCCCN3[C@@H](CO)[C@H](c4ccc(C5=CCCCC5)cc4)[C@@H]3C2)cc1 | 10 |
| C[C@@H]1O[C@@H](O[C@@H]2C=C3CCC4C(CC[C@]5(C)[C@@H](c6ccc(=O)oc6)CC[C@]45O)[C@@]3(C)CC2)[C@H](O)[C@H](O)[C@H]1O (some centres undefined) | 0.0201 |
| CC1(C)N=C(N)N=C(N)N1c1ccc(OCCCOc2ccccc2)c(Cl)c1 | 11.1 |
| CCOc1cc(/C=N/Nc2cc(C)nc(-n3nc(C)cc3C)n2)ccc1O | 4.12 |
| CC(C)(C)C(=O)Cn1ncc(Cl)c(Cl)c1=O | 14.8 |
| COc1ccc(S(=O)(=O)N2CC[C@@H]3[C@@H](CO)Nc4ccc(-c5ccc(C#N)cc5)cc4[C@@H]32)cc1 | 16.5 |
| C[C@@H]1O[C@@H](O[C@H]2C[C@@H](O)[C@]3(CO)[C@H]4[C@H](O)C[C@]5(C)[C@@H](C6COC(=O)C6)CC[C@]5(O)[C@@H]4CC[C@]3(O)C2)[C@H](O)[C@H](O)[C@H]1O (some centres undefined) | 2.22 |
| O=C(NCc1ccc(F)cc1)N1[C@H]2CC[C@@H]1C=C(c1ccc(F)cc1OCc1ccccc1)C2 | 14.4 |
| COc1ccccc1NC(=O)N1CCCCN2[C@H](CO)[C@H](c3ccc(-c4cccc(C)c4)cc3)[C@H]2C1 | 10.4 |
| CN(C[C@H]1N[C@@H](CO)[C@@H]1c1ccc(C2=CCCC2)cc1)C(=O)c1cccc(F)c1 | 4.63 |
| Cc1nc(N)nc(N)c1-c1ccc(Cl)c(Cl)c1 | 1.72 |
| C=C1C(=O)OC2C1CCC(C)C1(O)C=CC(=O)C21C (centres undefined) | 9.94 |
| C(=N\Nc1ccc2ccccc2n1)/c1ccc2c(c1)OCCO2 | 10.4 |

| Structure (SMILES) | AC35 [µM] |
| --- | --- |
| Cc1ccc(/C=N/Nc2ccc3ccccc3n2)o1 | 15.5 |
| C[C@]12CC[C@H](O)C[C@H]1CC[C@@H]1[C@@H]2CC[C@]2(C)[C@@H](C3=CC(=O)OC3)CC[C@]12O | 0.629 |
| COC1C(C)OC(OC2CC(C)(O)Cc3cc4c(c(O)c32)C(=O)c2c(O)cc3c(c2C4=O)OC2OC3(C)C(O)C(N(C)C)C2O)C(OC)C1(C)OC (centres undefined) | 0.128 |
| Cc1nn(Cc2ccccc2Cl)c2sc(C(=O)Nc3ccccc3N3CCOCC3)cc12 | 15.9 |
| CC(C)N1C/C(=C/c2ccsc2)C(=O)/C(=C/c2ccsc2)C1 | 7.95 |
| N#C[C@H]1[C@H](c2ccc(C#Cc3ccccc3F)cc2)[C@@H](CO)N1C(=O)C1CCCCC1 | 13.2 |
| CCc1nc(N)nc(N)c1-c1ccc(Cl)c(N=[N+]=[N-])c1 | 8.98 |
| Nc1nc(=S)c2ncn([C@@H]3O[C@H](CO)[C@@H](O)[C@H]3O)c2[nH]1 | 7.33 |
| O=c1c(Cl)cc(Cl)nn1-c1ccccc1 | 19.2 |
| O=c1ccc2ccccc2c2ccccc12 | 14.1 |
| C[C@H](CO)N1C[C@H](C)[C@H](CN(C)Cc2ccc(C(=O)Nc3ccccc3N)cc2)Oc2ccc(NC(=O)C3CC3)cc2CC1=O | 3.6 |
| C[C@H](CO)N1C[C@H](C)[C@H](CN(C)Cc2ccc(Oc3ccccc3)cc2)Oc2ccc(NC(=O)Cn3cnnn3)cc2CC1=O | 15.5 |
| O=C(NC1CCCC1)N1CCCCN2[C@@H](CO)[C@@H](c3ccc(/C=C/c4ccccc4)cc3)[C@@H]2C1 | 9.42 |
| O=c1cc(-c2ccccc2)oc2ccc3ccccc3c12 | 1.57 |
| CCc1ccc(/C=C2\SC(=S)N(CCCC(=O)N3CCN(C)CC3)C2=O)cc1 | 17.6 |
| Cc1nc(N)nc(N)c1/C=C/C(C)(C)c1ccc(Cl)cc1 | 0.0229 |
| Cc1cc(-c2nc3cc(F)ccc3s2)ccc1N | 16.9 |
| Cc1cc2c(C(C)C)c(O)c(O)c(C=O)c2c(O)c1-c1c(C)cc2c(C(C)C)c(O)c(O)c(C=O)c2c1O | 9.42 |
| COc1ccc(OC)c(-c2nnc3n2N=C(c2ccc(OC)c(OC4CCCC4)c2)CS3)c1 | 11.6 |
| OCC1OC(n2ccc3c2ncn2ncnc32)C(O)C1O (centres undefined) | 14.6 |
| CC(=O)Nc1ccc(S(=O)(=O)Nc2ccc(N3CCCCC3)cc2)cc1 | 22.1 |
| Cc1ccc2nc(-c3ccccc3)nn2c1 | 11.7 |
| CCN(Cc1ccccc1)c1ccc(/C=N/N=C(N)N)cc1 | 13.2 |

| Structure (SMILES) | AC35 [µM] |
| --- | --- |
| C=CC[n+]1c(-c2ccc(C)cc2)csc1Nc1ccc(NC(C)=O)cc1 | 12.5 |
| C[C@H]1CN([C@@H](C)CO)C(=O)c2cc(NS(=O)(=O)c3ccc(Cl)cc3)ccc2O[C@H]1CN(C)Cc1ccc(Cl)c(Cl)c1 | 16.5 |
| Cc1ccc(S(=O)(=O)Nc2ccc3c(c2)C(=O)N([C@H](C)CO)C[C@H](C)[C@@H](CN(C)Cc2ccc(C(F)(F)F)cc2)OCCCC[C@H](C)O3)cc1 | 8.51 |
| C[C@@H]1CN([C@H](C)CO)C(=O)c2cc(NC(=O)c3ccccc3)ccc2O[C@@H](C)CCCCO[C@H]1CN(C)C(=O)Nc1cccc2ccccc12 | 2.06 |
| CN=c1scc(-c2cccs2)n1/N=C/c1ccccc1O | 10.5 |
| CCN1C/C(=C/c2ccc(N3CCOCC3)cc2)C(=O)/C(=C/c2ccc(N3CCOCC3)cc2)C1 | 9.96 |
| Cc1ccc(/C=N/Nc2ccnc3cc(Cl)ccc23)c(C)c1 | 10.6 |
| CC(C)CC#Cc1ccc([C@@H]2[C@@H](CO)N3CCCCN(S(=O)(=O)c4ccc(F)cc4)C[C@H]23)cc1 | 16.1 |
| CCCN1C/C(=C/c2ccc3c(c2)OCO3)C(=O)/C(=C/c2ccc3c(c2)OCO3)C1 | 21.2 |
| CC(=NNc1cc(C)c2ccccc2n1)c1ccccn1 | 2 |
| CCCCc1c(Cc2ccccc2)ncn1CCc1ccccc1OC | 20.7 |
| O=C1NC(=O)N(Cc2ccco2)C(=O)/C1=C/C=C/c1ccco1 | 13.7 |
| CCc1cccc2c(C(=O)CN3C(=O)NC4(CCCCC4)C3=O)c[nH]c12 | 11.6 |
| Cc1cc(C)c2sc(NNC(=O)c3ccc(S(=O)(=O)N4CCc5ccccc5C4)cc3)nc2c1 | 5.13 |
| C[C@@H]1CN([C@@H](C)CO)C(=O)c2cc(NS(=O)(=O)c3ccc(Cl)cc3)ccc2O[C@@H]1CN(C)Cc1ccc(C(=O)Nc2ccccc2N)cc1 | 9.95 |
| CCCCC[C@H](C)N1C[C@H](COCc2ccccc2)Oc2cc(N3CC[C@@H](N(C)C)C3)ccc2S1(=O)=O | 14.8 |
| CC1(C)N=C(N)N=C(N)N1c1ccc(CCCCc2ccccc2)cc1 | 3.5 |
| CN(C[C@H]1N[C@@H](CO)[C@@H]1c1ccc(C2=CCCC2)cc1)C(=O)c1ccc(F)cc1 | 5.64 |
| CN(C)c1ccc(C=c2c3ccccc3n3c2c2c([n+]3C)CCCC2)cc1 | 2.08 |
| Oc1[nH]c2ccc(Br)cc2c1N=NC(=S)N1CCOCC1 | 4.31 |
| CC1=NN(c2ccc(C)cc2)C(=O)/C1=C\C=C\c1ccccc1 | 14.3 |
| COc1cc2c(OC(C)=O)c3c(c(-c4ccc5c(c4)OCO5)c2cc1OC)C(=O)OC3 | 0.964 |
| C[C@@H]1O[C@@H](O[C@@H]2C=C3CC[C@@H]4C(CC[C@]5(C)[C@@H](c6ccc(=O)oc6)CC[C@]45O)[C@@]3(C)CC2)[C@H](O)[C@H](O)[C@H]1O (some centres undefined) | < 0.011 |

| Structure (SMILES) | AC35 [µM] |
| --- | --- |
| Cc1cc2sc3ccc(C#CC4(O)CCCCC4)cc3c(=O)c2cc1C | 18.4 |
| C=C1C(=O)C=C[C@]2(C)C[C@@H]3OC(=O)[C@](C)(O)[C@H]3C[C@@H]12 | 8.77 |
| C[C@]12CC[C@H](O)C[C@H]1CC[C@@H]1[C@@H]2C[C@@H](O)[C@]2(C)[C@@H](C3=CC(=O)OC3)CC[C@]12O | 1.16 |
| CC(=O)OC1CC(OC2C(O)CC(OC3C(O)CC(OC4CCC5(C)C(CCC6C5CCC5(C)C(C7=CC(=O)OC7)CCC65O)C4)OC3C)OC2C)OC(C)C1OC1OC(CO)C(O)C(O)C1O (centres undefined) | 0.0583 |
| Cc1cccc(/C=C(\c2nc3ccccc3[nH]2)S(=O)(=O)c2ccccc2)c1 | 8.44 |
| CN1C2CCC1/C(=C/c1ccccn1)C(=O)/C2=C\c1ccccn1 | 1.1 |
| C[C@H]1CN([C@@H](C)CO)S(=O)(=O)c2ccc(C#Cc3ccncc3)cc2O[C@@H]1CN(C)C(=O)Nc1ccc2c(c1)OCO2 | 2.99 |
| COC(=O)Cc1[nH]n(-c2nc3ccccc3s2)c(=O)c1C(C)=Nc1ccc(OC)cc1 | 14 |
| Cc1ccccc1S(=O)(=O)N1CC[C@@H]2[C@@H](CO)Nc3ccc(-c4ccc(C#N)cc4)cc3[C@@H]21 | 14.8 |
| C[C@@H]1CN([C@H](C)CO)C(=O)Cc2cc(NC(=O)CCCCCC(=O)Nc3ccccc3N)ccc2O[C@@H]1CN(C)CC1CCCCC1 | 20.1 |
| C[C@@H]1CN([C@H](C)CO)C(=O)c2cc(N(C)C)ccc2O[C@H]1CN(C)Cc1ccc(C(=O)Nc2ccccc2N)cc1 | 16.5 |
| COc1ccc(-c2ccc3c(c2)[C@H]2[C@H](CCN2S(=O)(=O)c2ccc(OC)cc2)[C@@H](CO)N3C)cc1 | 24.5 |
| C(=Cc1cnc2ccccc2n1)c1ccc2c(c1)OCO2 | 5.29 |
| C[C@@H]1CN([C@@H](C)CO)C(=O)c2cccc(N(C)C)c2O[C@@H]1CN(C)Cc1ccc(C(=O)Nc2ccccc2N)cc1 | 8.32 |
| C[C@H]1CN([C@@H](C)CO)S(=O)(=O)c2ccc(C#Cc3ccncc3)cc2O[C@@H]1CN(C)S(=O)(=O)c1ccccc1 | 12.3 |
| N#CC(C#N)=C1C=CC=CN1/C(=C\c1ccco1)C(=O)c1ccc(Cl)cc1 | 3.47 |
| O=C1NC(=O)N(Cc2ccc(F)cc2)C(=O)/C1=C\C=C\c1ccco1 | 13.3 |
| COc1cccc(O)c1CN1CCC(C(=O)Nc2ccc(-c3cccc(C)c3)cc2)CC1 | 11.8 |
| C[C@]12CC[C@H]3[C@@H](CC[C@]4(O)C[C@@H](O)CC[C@]34C=O)[C@@]1(O)CC[C@@H]2C1=CC(=O)OC1 | 0.774 |
| Cc1ccc(C(C)C)c(OCc2ccc(C(=O)N/N=C/c3ccc(O)cc3O)cc2)c1 | 4.02 |
